Measured values from the NIST ThermoML archive (doi:10.1021/je9010486).

Experiment: cn = amount concentration of the nth substance listed, in mol/dm3
Conditions: 101 kPa, Liquid

OC[C@@H](O)[C@@H](O[C@H]1O[C@H](CO)[C@@H](O)[C@H](O)[C@H]1O)[C@H](O)[C@@H](O)CO [4-O-α-D-glucopyranosyl-D-glucitol] + O
Conditions	mass density, 293.15 K [kg/m3]	mass density, 303.15 K [kg/m3]	mass density, 313.15 K [kg/m3]	mass density, 323.15 K [kg/m3]	viscosity, 293.15 K [mPa·s]	viscosity, 303.15 K [mPa·s]	viscosity, 313.15 K [mPa·s]	viscosity, 323.15 K [mPa·s]
c1 = 0.1	1009.45	1007.32	1003.78	999.68	1.274	0.8869	0.6982	0.6083
c1 = 0.2	1018.37	1016.24	1012.7	1008.6	1.381	0.9747	0.7706	0.652
c1 = 0.3	1027.29	1025.16	1021.62	1017.52	1.513	1.104	0.8464	0.7175
c1 = 0.4	1036.21	1034.08	1030.54	1026.44	1.66	1.225	0.9455	0.7827
c1 = 0.5	1045.13	1043	1039.46	1035.36	1.848	1.361	1.06	0.8723
c1 = 0.6	1054.05	1051.92	1048.38	1044.28	2.009	1.536	1.177	0.9616
c1 = 0.7	1062.97	1060.84	1057.3	1053.2	2.173	1.684	1.301	1.061
c1 = 0.8	1071.89	1069.76	1066.22	1062.12	2.304	1.825	1.438	1.15
c1 = 0.9	1080.81	1078.68	1075.14	1071.04	2.49	1.947	1.591	1.242
c1 = 1	1089.73	1087.6	1084.06	1079.96	2.68	2.132	1.741	1.385

OC[C@@H](O)[C@@H](O)[C@H](O)[C@@H](O)CO [D-sorbitol] + O
Conditions	mass density, 293.15 K [kg/m3]	mass density, 303.15 K [kg/m3]	mass density, 313.15 K [kg/m3]	mass density, 323.15 K [kg/m3]	viscosity, 293.15 K [mPa·s]	viscosity, 303.15 K [mPa·s]	viscosity, 313.15 K [mPa·s]	viscosity, 323.15 K [mPa·s]
c1 = 0.1	1004.76	1002.12	998.58	994.32	1.088	0.8619	0.6892	0.5711
c1 = 0.2	1011.23	1008.52	1004.89	1000.54	1.113	0.8842	0.7109	0.5983
c1 = 0.3	1017.64	1014.83	1011.14	1006.75	1.168	0.9329	0.7399	0.6199
c1 = 0.4	1024.07	1021.15	1017.37	1012.93	1.22	0.9794	0.7849	0.6596
c1 = 0.5	1029.89	1026.88	1023.01	1018.5	1.275	1.029	0.8127	0.6841
c1 = 0.6	1036.94	1033.82	1029.9	1025.33	1.33	1.079	0.8573	0.7037
c1 = 0.7	1043.32	1040.11	1036.08	1031.44	1.394	1.136	0.8885	0.7392
c1 = 0.8	1049.36	1046.04	1041.95	1037.25	1.466	1.202	0.931	0.7779
c1 = 0.9	1056.16	1052.72	1048.48	1043.79	1.531	1.26	0.9849	0.8178
c1 = 1	1062.52	1058.99	1054.72	1049.92	1.608	1.329	1.03	0.8541

OC[C@@H](O)[C@@H](O)[C@H](O)[C@H](O)CO [mannitol] + O
Conditions	mass density, 293.15 K [kg/m3]	mass density, 303.15 K [kg/m3]	mass density, 313.15 K [kg/m3]	mass density, 323.15 K [kg/m3]	viscosity, 293.15 K [mPa·s]	viscosity, 303.15 K [mPa·s]	viscosity, 313.15 K [mPa·s]	viscosity, 323.15 K [mPa·s]
c1 = 0.1	1004.82	1002.13	998.28	994.21	1.096	0.8694	0.6961	0.5782
c1 = 0.2	1010.89	1008.14	1004.5	999.82	1.143	0.9398	0.7468	0.6062
c1 = 0.3	1016.96	1014.15	1010.72	1005.23	1.203	0.986	0.7918	0.6356
c1 = 0.4	1023.03	1020.16	1016.94	1011.02	1.285	1.036	0.8201	0.6706
c1 = 0.5	1029.1	1026.17	1023.16	1017.33	1.336	1.085	0.8642	0.7104
c1 = 0.6	1035.17	1032.18	1029.38	1024.45	1.4	1.142	0.8954	0.7458
c1 = 0.7	1041.24	1038.19	1035.6	1030.32	1.472	1.197	0.9383	0.7849
c1 = 0.8	1047.31	1044.2	1041.82	1036.78	1.553	1.253	0.9934	0.8456

OC[C@@H](O)[C@@H](O)CO [meso-1,2,3,4-butanetetrol] + O
Conditions	mass density, 293.15 K [kg/m3]	mass density, 303.15 K [kg/m3]	mass density, 313.15 K [kg/m3]	mass density, 323.15 K [kg/m3]	viscosity, 293.15 K [mPa·s]	viscosity, 303.15 K [mPa·s]	viscosity, 313.15 K [mPa·s]	viscosity, 323.15 K [mPa·s]
c1 = 0.1	1002.06	999.34	995.83	991.64	1.047	0.8541	0.6807	0.5663
c1 = 0.2	1005.36	1002.74	999.19	994.96	1.065	0.8706	0.7005	0.5849
c1 = 0.3	1009.37	1006.74	1003.09	998.81	1.088	0.8913	0.721	0.5986
c1 = 0.4	1012.65	1009.58	1006.3	1001.94	1.11	0.911	0.743	0.6171
c1 = 0.5	1016.16	1013.33	1009.63	1005.23	1.139	0.9366	0.7611	0.6351
c1 = 0.6	1019.38	1016.67	1012.43	1008.41	1.169	0.9634	0.7827	0.652
c1 = 0.7	1023.78	1020.8	1015.82	1012.27	1.213	1.002	0.8067	0.6734
c1 = 0.8	1026.82	1024.2	1019.15	1015.63	1.257	1.045	0.8339	0.6909
c1 = 0.9	1031.9	1027.8	1023.23	1019.38	1.306	1.087	0.861	0.7057
c1 = 1	1034.32	1031.18	1027.24	1022.64	1.338	1.137	0.8965	0.7251

OC[C@@H](O)[C@H](O)[C@@H](O)CO [xylitol] + O
Conditions	mass density, 293.15 K [kg/m3]	mass density, 303.15 K [kg/m3]	mass density, 313.15 K [kg/m3]	mass density, 323.15 K [kg/m3]	viscosity, 293.15 K [mPa·s]	viscosity, 303.15 K [mPa·s]	viscosity, 313.15 K [mPa·s]	viscosity, 323.15 K [mPa·s]
c1 = 0.1	1003.31	1000.96	997.16	992.72	1.068	0.858	0.685	0.5687
c1 = 0.2	1008.5	1005.78	1002.18	997.77	1.089	0.8774	0.7057	0.5916
c1 = 0.3	1013.42	1010.64	1006.99	1002.55	1.128	0.9121	0.7305	0.6093
c1 = 0.4	1018.54	1015.65	1011.95	1007.51	1.165	0.9452	0.764	0.6384
c1 = 0.5	1023.6	1020.49	1016.87	1012.42	1.207	0.9829	0.7869	0.6596
c1 = 0.6	1028.66	1025.38	1021.78	1017.34	1.25	1.021	0.825	0.6779
c1 = 0.7	1033.72	1030.28	1026.7	1022.25	1.313	1.079	0.8476	0.7063
c1 = 0.8	1038.78	1035.17	1031.62	1027.17	1.362	1.123	0.8825	0.7344
c1 = 0.9	1043.84	1040.06	1036.54	1032.09	1.423	1.178	0.923	0.7618
c1 = 1	1048.9	1044.95	1041.45	1037	1.473	1.223	0.9632	0.7896
